Usually Ki stands for the dissociation constant of the complex between target and ligand, obtained from inhibition or displacement. The IC50 is the midpoint of a concentration-inhibition curve.

Peptide text beside a SMILES is read from it. * marks the point of attachment. Cbz = O=C(OCc1ccccc1)* Some results are limits rather than exact numbers.

Data set [1] deals with T1, proteasomes isolated from rabbit reticulocytes.
T1 construct: other: Lineweaver-Burk plot analysis; other: at the Fa 10; other: at the Fa 25; other: at the Fa 50
The class given is biochemical. As to conditions: Lineweaver-Burk plot analysis. Here is the method: (§1) Data represent the mean±SD.
(§2) After incubation, cleavage of the fluorogenic substrate Z-Leu-Leu-Glu-AMC was measured as above. […] The approximate binding sites of bortezomib that is located inside the catalytic chamber are also indicated.
(§3) Proteasome complexes were isolated from rabbit reticulocytes and T. acidophilum as described previously.
(§4) Data are expressed as mean values±SD. The statistical significance was computed with Student's t-test. […] Isobologram analysis was performed with CalcuSyn software (Biosoft, Ferguson, Mo., and Cambridge, UK). A combination index (CI) less than 1.0 indicated synergism.

Data set [2] concerns the target T2, proteasomes isolated from rabbit reticulocytes.
T2 construct: Ki
Format: biochemical. As to conditions: Lineweaver-Burk plot analysis, noncompetitive model. Here is the method:
as §1, §2, §3, §4

Data set [3] concerns the target T3, proteasome isolated from archaebacterium T. acidophilum (Thermoplasma acidophilum, UniProt P25156).
T3 construct: made in house
Nature of the data set: enzymatic activity of purified T. acidophilum proteasome (Suc-LLVY-AMC cleavage). Format: biochemical.
Text: Data represent the mean±SD. A Lineweaver-Burk plot is presented as a fit to a noncompetitive model of inhibition.
as §3

Data set [4] relates to proteasome in protein extracts from MDAY-D2 leukemia cells. The data set is described as follows: proteasome activity in cell extracts (Suc-LLVY-AMC). Format: biochemical, murine. As to conditions: added to extracts derived from MDAY-D2 leukemia cells. Here is the method:
A) Protein extracts from MDAY-D2 leukemia cells were treated with aliquots of compounds from a focused chemical library (final concentration 5 μM).

Data set [5] concerns the target T4, α7-α7 half-proteasome of the T. acidophilum 20S proteasome (Thermoplasma acidophilum, UniProt P25156).
T4 construct: His-tag (N, cleaved yes); made in house
Nature of the data set: inhibitor binding to the proteasome by NMR. As to conditions: 50° C., methyl-labelled α7-α7. From the text:
The 20S proteasome from T. acidophilum was produced as described previously with the alpha and beta subunits co-expressed from 2 different plasmids (where the beta subunit carried a C terminal His-tag). Samples of the half-proteasome comprised of pairs of alpha-rings, a7-a7, were produced by overexpression of the a subunit that carried a N-terminal cleavable His-tag that was removed during purification. Methyl labelling of proteins for NMR analysis was achieved by growing cells in D2O based minimal medium with ^2H-^12C glucose as the carbon source. One hour before induction of protein expression, alpha-ketobutyric acid (60 mg/L) and alpha-ketoisovaleric acid (100 mg/L; only one of the two isopropyl methyls was ^13CH3 labeled, the other ^12CD3) were added to introduce ^13CH3 methyl groups in Ile, Leu and Val. Proteins were purified by Ni-NTA affinity resin and size exclusion chromatography.
NMR experiments with the (a7-a7) proteasome were performed on Varian 600 MHz spectrometers at 50° C. on samples that were ˜[…], 100% D2O, 25 mM potassium phosphate pH 6.8, 50 mM NaCl, 1 mM EDTA, 0.03% NaN3 and 2 mM DTT similar to previously described. NMR data was processed and analyzed with the nmrPipe/nmrDraw software package.

For another data set, the system named is LP1 myeloma cell lines. Nature of the data set: ubiquitinated proteins by immunoblotting. Format: cell-based, human. As to conditions: 24 hours after treatment. Here is the method:
Whole cell lysates were prepared from myeloma cells as described previously. Briefly, cells were washed with phosphate-buffered saline (PBS, pH 7.4) and re-suspended in lysis buffer [10 mM Tris (pH 7.4), 150 mM NaCl, 0.1% Triton X-100, 0.5% sodium deoxycholate, and 5 mM EDTA] containing protease inhibitors (Complete tablets, Roche, Indianapolis, Ind.). Protein concentrations were determined by the Bradford assay. Equal amounts of protein were subjected to SDS-PAGE gels followed by transfer to nitrocellulose membranes. Membranes were probed with rabbit anti-human polyclonal anti-ubiquitin (1:1000 v/v) (Calbiochem, San Diego, Calif.), or mouse monoclonal anti-beta actin (1:10,000 v/v) (Sigma) followed by secondary horseradish peroxidase (HRP)-conjugated goat anti-mouse (1:10,000 v/v) or anti-rabbit IgG (1:5,000 v/v) (Amersham Bioscience UK, Little Chalfont, England). Detection was performed by the Enhanced Chemical Luminescence (ECL) method (Pierce, Rockford, Ill.).
Twenty four hours after treatment, the abundance of ubiquitinated proteins in the cells was measured by immunoblotting.
For orientation: In western blotting, separated proteins are transferred to a membrane and probed.

The subject of data set [6] is NFkappaB p50 subunit DNA binding in MDAY-D2 cells. The data set is described as follows: NFkappaB activity (p50 DNA-binding ELISA). Format: cell-based, murine. As to conditions: 24 hours 5AHQ, with and without TNF-alpha. The method, then: NFkappaB activity was measured using the Trans-AM NFkappaB p65 transcription factor assay kit (Active Motif, Carlsbad, Calif.) according to the manufacturer's instructions. […] Nuclear extracts were prepared using the Nuclear Extract kit (Active Motif, Carlsbad, Calif.) according to the manufacturer's instructions. Binding of the NFkappaB transcription factor subunit p50 to the DNA consensus sequence (5′-[…]-3′) cross linked to 96-well plates was measured using enzyme-linked immunosorbent assay (ELISA) technology with absorbance reading according to the manufacturer's protocol.
In general terms: ELISA stands for enzyme-linked immunosorbent assay.

The subject of the next data set is myeloma cell lines. Nature of the data set: cell viability MTS assay, myeloma cell lines. Format: cell-based, human. As to conditions: 72 hours, in 7/7 myeloma cell lines. Background: Tetrazolium assays rely on reduction of a dye to a coloured formazan, in cell work by metabolically active cells.
For another data set, the system named is leukemia cell lines. The data set is described as follows: cell viability MTS assay, leukemia cell lines. Format: cell-based, human and murine. As to conditions: 72 hours, in 6/10 leukemia cell lines.
For a further data set, the system named is solid tumor cell lines. The data set is described as follows: cell viability MTS assay, solid tumor cell lines. As to conditions: 72 hours, in 3/10 solid tumor cell lines. The class given is cell-based, human.
The subject of data set [7] is normal hematopoietic cells. The data set is described as follows: viability of normal hematopoietic cells (PBSC). The class given is cell-based, human. The method, then: Forty-eight hours after treatment, cell viability was measured by the MTS assay. Data represent the mean±SD percent viability compared to buffer treated cells. D) Primary acute myeloid leukemia (AML) blasts (n=4), CLL (n=5) or normal peripheral blood stem cells (PBSC) (n=3) were obtained from the peripheral blood of consenting patients with AML, CLL or donors of PBSC for allotransplantation, respectively. […] Data represent the mean±SD percentage of viable cells compared to buffer treated cells.
Primary cells. Primary human acute myeloid leukemia (AML) and chronic lymphocytic leukemia (CLL) samples were isolated from peripheral blood samples from consenting patients with AML and CLL, respectively, who had at least 80% malignant cells among the mononuclear cells in their peripheral blood. Primary normal hematopoietic cells were obtained from healthy volunteers donating peripheral blood mononuclear stem cells (PBSC) for allotransplantation. […]
Cell viability was assessed by the MTS (Promega, Madison, Wis.) and Alamar Blue Fluorescence assays (Invitrogen, Carlsbad, Calif.) according to manufacturer's instructions and as previously described [14]. Apoptosis was measured by Annexin V-FITC (Biovision Research Products, Mountain View, Calif.) staining and flow cytometry according to manufacturer's instructions and as previously described.

Data set [8] has as its system CEM cells over-expressing the multidrug resistant pumps Pgp, BCRP, or MRP1. Nature of the data set: cell death in bortezomib-resistant CEM cells. Format: cell-based. As to conditions: CEM cells resistant to bortezomib by over-expression of Pgp.
Data set [9] has as its system OCI-AML2 or K562 human leukemia cells, MDAY-D2 murine leukemia cells in NOD-SCID mice. The data set is described as follows: mouse models of leukemia (xenograft), oral 5AHQ. The class given is in vivo. The method, then: Sublethally irradiated NOD/SCID mice were injected subcutaneously with U937 and K562 leukemia cells or intraperitoneally with MDAY-D2 leukemia cells. […] Eight (MDAY-D2) or ten (U937 and K562) days after tumor inoculation, mice were sacrificed, the subcutaneous or intraperitoneal tumor excised, and the weight of the tumors measured. The bars represent the median of the population. p values reflect the Mann-Whitney non-parametric test.
MDAY-D2 murine leukemia cells (5×10^5) were injected intraperitoneally into sublethally irradiated (3.5 Gy) NOD/SCID mice (Ontario Cancer Institute, Toronto, Canada). […] Mice were sacrificed, and the weight and volume of the intraperitoneal tumors were measured.
K562 leukemia cells (3×10^6) or U937 leukemia cells (2×10^6) were injected subcutaneously (s.c.) into the flank of sublethally irradiated NOD/SCID mice. […] Mice were then sacrificed, and the weight of the tumors was measured.
Sublethally irradiated NOD-SCID mice were injected subcutaneously with OCI-AML2 or K562 human leukemia cells or intraperitoneally with MDAY-D2 murine leukemia cells.

Another data set can be described thus: LD50 in mice. As to conditions: mouse, in vivo.
For data set [10], the system named is bortezomib-resistant THP1 leukemia cells (β5 proteasome subunit mutated and over-expressed). As to conditions: 72 hours, trypan blue staining.
Experimental: (§5) Cell lines. Human multiple myeloma (MM) and solid tumor cell lines were grown in Iscove's Modified Dulbecco's Medium (IMDM). […] These cells were maintained in bortezomib up to at least 7 days prior to the experiment. Media were supplemented with 10% fetal calf serum (FCS), 100 ug/mL penicillin, and 100 units/mL streptomycin (all from Hyclone, Logan, Utah).
(§6) After incubation, cell viability was measured by trypan blue staining.
Data set [11] relates to THP1/BTZ50. Nature of the data set: cells. As to conditions: Homo sapiens, THP-1, 72 h, read-out: IC50 5AHQ.
Experimental: as §5, §6
The test system of data set [12] is THP1/BTZ100. Nature of the data set: cells. As to conditions: Homo sapiens, THP-1, 72 h, read-out: IC50 5AHQ.
Experimental: as §5, §6
Data set [13] concerns THP1/BTZ200. The data set is described as follows: cells. As to conditions: Homo sapiens, THP-1, 72 h, read-out: IC50 5AHQ.
Experimental: as §5, §6
Data set [14] concerns THP1/BTZ500. Nature of the data set: cells. As to conditions: Homo sapiens, THP-1, 72 h, read-out: IC50 5AHQ.
Experimental: as §5, §6
The test system of data set [15] is chymotrypsin-like activity of the proteasome in leukemia, myeloma, and solid tumor cell lines. The data set is described as follows: proteasome activity after treatment of intact cells (Suc-LLVY-AMC). As to conditions: intact cells treated 24 hours, then lysed.
Experimental: A) Myeloma, leukemia, and solid tumor cell lines were treated with increasing concentrations of 5AHQ. Twenty hours after treatment, cells were lysed and the preferential chymotrypsin-like substrate Suc-LLVY-AMC was added. The generation of free AMC was measured over time with a fluorescent spectrophotometric plate reader as described in the Materials and Methods. Data represent the mean±SD maximal rate of proteasomal activity expressed as a percentage of buffer treated cells.
To measure the effects of 5AHQ on the enzymatic activity of the proteasome in intact cells, solid tumor, leukemia and myeloma cell lines were treated with increasing concentrations of 5AHQ. Twenty hours after treatment, cells were lysed in 50 mM HEPES pH 7.5, 150 mM NaCl and 1% Triton X-100, and 2 mM ATP. To equal protein concentrations, the proteasome fluorogenic substrate, Suc-LLVY-AMC, was added and the generation of free AMC was measured over time with a fluorescent spectrophotometric plate reader as above.
Leukemia, myeloma, and solid tumor cell lines were treated with increasing concentration of 5AHQ for 24 hours. After treatment, cells were harvested, lysed, and the chymotrypsin-like activity of the proteasome was measured by monitoring the rate of cleavage of the fluorescent substrate Suc-LLVY-AMC.
The next data set has as its system THP1/WT. As to conditions: data from Oerlemans et al, 2008; cited from earlier work.
Data set [16] deals with THP1/BTZ50. As to conditions: data from Oerlemans et al, 2008; cited from earlier work.
Data set [17] deals with THP1/BTZ100. As to conditions: data from Oerlemans et al, 2008; cited from earlier work.
Data set [18] deals with THP1/BTZ200. As to conditions: data from Oerlemans et al, 2008; cited from earlier work.
In data set [19] the test system is THP1/BTZ500. As to conditions: data from Oerlemans et al, 2008; cited from earlier work.
The subject of a further data set is proteasome. As to conditions: non-competitive inhibitor binding the alpha subunits [8]; cited from earlier work.

T3 sequence (P25156 whole entry): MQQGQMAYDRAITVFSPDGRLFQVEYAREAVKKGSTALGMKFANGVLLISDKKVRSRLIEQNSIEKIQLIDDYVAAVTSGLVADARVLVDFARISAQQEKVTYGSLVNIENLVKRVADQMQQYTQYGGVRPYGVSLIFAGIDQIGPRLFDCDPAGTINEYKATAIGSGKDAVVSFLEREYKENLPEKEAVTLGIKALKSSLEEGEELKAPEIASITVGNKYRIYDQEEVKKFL
T3 sequence (P28061 9-211 partner): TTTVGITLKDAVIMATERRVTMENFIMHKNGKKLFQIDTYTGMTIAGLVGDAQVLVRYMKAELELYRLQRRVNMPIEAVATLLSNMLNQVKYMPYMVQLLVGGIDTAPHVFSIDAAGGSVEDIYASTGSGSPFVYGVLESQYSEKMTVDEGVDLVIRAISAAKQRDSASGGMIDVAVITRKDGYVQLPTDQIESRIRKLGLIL
T4 sequence (P25156 whole entry): as the sequence (P25156 whole entry) above

In the case of `Nc1ccc(O)c2ncccc12` [5AHQ, 5-amino-8-hydroxyquinoline], the mode of inhibition result in [1] is “noncompetitively”; in data set [3] (Lineweaver-Burk plot), “non-competitive kinetics”. Further, the inhibitory constant (Ki) in data set [2] came to 2.1 ± 0.18 µM; in [3] it was 161 ± 4 µM. Further, in [4], the “inhibition of the enzymatic activity of the proteasome” value is “inhibited the enzymatic activity of the proteasome at low micromolar concentrations”. Further, in data set [5], the “NMR spectral changes on binding” value was “clear spectral changes localized to residues Ile159, Val113, Val87, Val82, Leu112, Val89, Val134, Val24 and Leu136”. The “amount of ubiquitinated protein” value with LP1 myeloma cell lines is reported as “increased the amount of ubiquitinated protein”. For the same molecule, the NFkappaB activity entry in data set [6] is “inhibited basal and TNF-alpha stimulated NFkappaB activity”. Also, the LD50 in the data set on myeloma cell lines was below 5 µM; with leukemia cell lines it was below 5 µM; with solid tumor cell lines, below 5 µM; in “LD50 in mice”, above 1000 mg/kg. Moreover, the “concentration up to which not cytotoxic” value in data set [7] is above 62.5 µM. The “sensitivity to 5AHQ-induced cell death” value in data set [8] is “remained equally sensitive to 5AHQ-induced cell death”. The “decrease of tumor weight and volume compared to control” value in data set [9] (50 mg/kg/day by oral gavage, all 3 mouse models) is recorded as “at least 50%”. Further, the “weight loss or gross organ toxicity” value in data set [9] (mouse, in vivo) is “without causing weight loss or gross organ toxicity”. Besides, the “sensitivity to 5AHQ” value in [10] is “remained essentially fully sensitive to 5AHQ”. The IC50 in the data set with THP1/BTZ50 [11] came to 6.6 ± 0.4 µM; in the data set on THP1/BTZ100 [12], 6.3 ± 0.4 µM; in the data set with THP1/BTZ200 [13], 6.4 ± 0.7 µM; in the data set on THP1/BTZ500 [14], 6.6 ± 0.9 µM. Besides, in [15], the “rate of Suc-LLVY-AMC cleavage” value is listed as “inhibited the rate of Suc-LLVY-AMC cleavage”.
In the case of `CC(C)C[C@@H](C=O)NC(=O)[C@H](CC(C)C)NC(=O)[C@H](CC(C)C)NC(=O)OCc1ccccc1` [MG132, reference compound] (Cbz-Leu-Leu-Leu-aldehyde), in [1], the mode of inhibition entry was “competitively”.
`CC(C)C[C@H](NC(=O)[C@H](Cc1ccccc1)NC(=O)c1cnccn1)B(O)O` [bortezomib, [(1R)-3-Methyl-1-[[(2S)-1-oxo-3-phenyl-2-[(pyrazinylcarbonyl)amino]propyl]amino]butyl]boronic acid]: the “RF BTZ (Resistance Factor)” value in the data set on THP1/WT is 1; in the data set on THP1/BTZ50 [16], 45; in the data set on THP1/BTZ100 [17], 79; with THP1/BTZ200 [18] it was 129; with THP1/BTZ500 [19], 237.
Take `CCN(CC)CCCC(C)Nc1ccnc2cc(Cl)ccc12` (centres unmarked) [chloroquine]: in the data set on proteasome, the “proteasome inhibition relative to 5AHQ” value is listed as “much weaker proteasome inhibitor than 5AHQ”.

Values taken from patent US20110319427A1 (priority 2009, published 2011).
